pIC50: −log10 of the molar value. Entries after “also recorded” stand apart in the source; their conditions may differ.
Legend:
[1] = system: LPS-induced (infection-associated) preterm labor and delivery in pregnant C57B1/6 mice; experiment: Animal model of preterm birth (LPS-injected timed pregnant mice); assay type: in vivo, mouse
Experimental: Animal models of preterm birth. The Animal Care and Utilization Committee of the College of Pharmacy and Allied Health Professions, St. John's University approved all experimental protocols, and the research was conducted according to the requirements of NIH Guide for the Care and Use of Laboratory Animals (revised 1996). C57B1/6 mice from Taconic Laboratory were used for all experiments. Animals were housed in plastic cages in a temperature-controlled animal facility with alternating 12:12 hour light-dark cycles, with ad libitum access to food and water.
Nineteen timed pregnant C57B1/6 E15.5 mice were injected with LPS in 0.5 ml PBS at a concentration of 50 mg/kg. These mice were randomly assigned to two groups. Group A mice (n=8) received 50 mg/kg HJP272 dissolved in PBS and Group B mice (n=11) received PBS only.
All treatments were administered by ip injection 10 hours after LPS injection. Mice were continually monitored and the time of delivery of all pups, as well as the number of pups delivered, was recorded. All mice were autopsied at the end of the experiment to confirm pregnancy and to determine the number of pups retained in utero.

[2] = system: BALF neutrophils in female Syrian hamsters; experiment: Animal model of smoking related acute lung injury (ET-1 plus cigarette smoke, BALF neutrophils); assay type: in vivo, hamster; details: 500 μg IP 60 minutes before 5 μg ET-1, then cigarette smoke two hours, three days
Experimental: Animal models of smoking related acute lung injury. The Animal Care and Utilization Committee of the College of Pharmacy and Allied Health Professions, St. John's University approved all experimental protocols, and the research was conducted according to the requirements of NIH Guide for the Care and Use of Laboratory Animals (revised 1996).
Female Syrian hamsters, weighing approximately 100 g each, were divided into two groups as follows: Group 1 was treated IP with: 1) 500 μg of HJP272 in 0.5 mL Na2CO3 and 2) 5 μg ET-1 in 0.25 mL PBS 60 minutes later, followed immediately by exposure to cigarette smoke for two hours. This regimen was continued for three days.
Group 2 was treated IP with: 1) 0.5 mL Na2CO3 and 2) […] ET-1 in 0.25 mL PBS 60 minutes later, followed immediately by exposure to cigarette smoke for three consecutive days as per Group 1. The animals were placed in a 70×48×38 cm chamber and passively exposed to cigarette smoke produced by a TE-10 smoking machine (Teague Enterprises, Davis, Calif.) that simultaneously burned two filtered research-grade cigarettes (type 2R4F, University of Kentucky). Smoke from both the filtered and burning ends of the cigarette was collected, and then mixed together with air in a separate chamber, thus simulating second-hand smoke exposure. Each cigarette was puffed once per minute for two seconds at a flow rate of 1.05 LPM, yielding 35 mL of smoke. This cycle was repeated nine times before ejecting the cigarette and loading a new one. Proper flow rate was maintained by a vacuum pump that established negative pressure at the exhaust port. Total smoke particulates averaged 87 mg per cubic meter.
All animals were sacrificed 24 hours after completing the smoke exposure regimen to maximize the neutrophil population in the lung, and the percentage of BALF neutrophils was measured (van der Vaart et al. 2004)

[3] = target: T1, BioXTal ET-A receptor (Homo sapiens, UniProt P25101); experiment: In vitro competitive binding assay with [125I]Tyr13-ET-1, ET-A receptor; details: [125I]ET-1 224 pM; 10 ug receptor; 30 to 32° C., two hours; triplicate; read-out: IC50, inhibition of specific [125I] ET-1 binding to ETA receptor
T1 construct: purchased BioXTal
T1 sequence (P25101 21-427): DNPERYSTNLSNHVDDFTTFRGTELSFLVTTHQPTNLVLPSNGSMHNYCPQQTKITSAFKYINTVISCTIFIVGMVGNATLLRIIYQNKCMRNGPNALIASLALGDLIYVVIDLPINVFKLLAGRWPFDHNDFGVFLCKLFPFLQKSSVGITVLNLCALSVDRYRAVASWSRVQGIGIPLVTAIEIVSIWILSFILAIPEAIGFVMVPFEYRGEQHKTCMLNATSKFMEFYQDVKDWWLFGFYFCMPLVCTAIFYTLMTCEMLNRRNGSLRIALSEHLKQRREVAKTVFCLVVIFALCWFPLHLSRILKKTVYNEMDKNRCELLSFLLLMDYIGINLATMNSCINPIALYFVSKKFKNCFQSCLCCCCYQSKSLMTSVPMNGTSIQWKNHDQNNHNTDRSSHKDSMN
Experimental: (§1) In vitro binding assay. Varying concentrations of HJP272, ranging from 10^3 to 10^8 pM, were incubated with 10 ug of BioXTal ET-A or ET-B receptor and 224 pM [^125I]Tyr13-ET-1 in 50 mM NaH2PO4, 150 mM NaCl, 5 mM EDTA, and 0.1% bovine serum albumin.
(§2) For total binding, radio labeled ET-1 and receptor were incubated without the receptor antagonist. For non-specific binding, 300 nM cold ET-1 was substituted for the antagonist. Assay mixtures were incubated at 30 to 32° C. for two hours and the assays were stopped by the addition of cold buffer. Assay mixtures were then quickly filtered through GF/C Whatman filters and washed with cold assay buffer in a Millipore sampling manifold. Filters were collected and counts per minute of the bound radio labeled ET-1 were read by a Packard Cobra Gamma Counter (Perkin Elmer).
(§3) Percent specific binding was calculated for all data points. Assays containing ET-A receptor were run in triplicate and assays containing the ET-B receptor were run in duplicate.

[4] = target: T2, BioXTal ET-B receptor (Homo sapiens, UniProt P24530); experiment: In vitro competitive binding assay with [125I]Tyr13-ET-1, ET-B receptor; details: selectivity ETA versus ETB; ET-B assays in duplicate
T2 construct: purchased BioXTal
T2 sequence (P24530 27-442): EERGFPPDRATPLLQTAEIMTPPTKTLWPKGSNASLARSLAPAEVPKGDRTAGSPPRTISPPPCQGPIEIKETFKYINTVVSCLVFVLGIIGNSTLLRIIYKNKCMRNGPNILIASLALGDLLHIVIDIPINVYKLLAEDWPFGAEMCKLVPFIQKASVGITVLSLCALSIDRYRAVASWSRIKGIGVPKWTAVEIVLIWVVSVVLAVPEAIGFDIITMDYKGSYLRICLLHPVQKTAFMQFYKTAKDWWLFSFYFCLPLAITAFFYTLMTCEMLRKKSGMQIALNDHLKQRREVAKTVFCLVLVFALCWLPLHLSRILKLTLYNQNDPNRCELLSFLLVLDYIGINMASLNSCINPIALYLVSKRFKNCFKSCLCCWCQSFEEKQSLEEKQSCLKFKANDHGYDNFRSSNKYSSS
Experimental: as §1, §2, §3

[5] = system: attachment of neutrophils to colonic submucosal venules; details: inflammatory bowel disease; Anthoni et al. 2006; cited from earlier work

Structure (SMILES) | percent of prematurely delivered pups ([1]; E15.5 mice, LPS 50 mg/kg, 50 mg/kg ip 10 hours after LPS, PBS control 39.7) [%] | mice that delivered prematurely ([1]; E15.5 mice, LPS 50 mg/kg, 50 mg/kg ip 10 hours after LPS, control 11 out of 11) | control of premature labor and delivery ([1]; LPS followed by compound versus LPS followed by vehicle) | prevention of premature expulsion of pups ([1]; LPS followed by compound versus LPS followed by vehicle, P<0.0001) | average delivery time (T) ([1]; the six treated mice that delivered, LPS 50 mg/kg, PBS control T10.9+/−0.61, p<0.0001) [h] | craniofacial anomalies in pups ([1]; transient exposure, late in gestation) | melting point [°C] | effect on the ET-1-induced rise of BALF neutrophils (words) [2] | effect on the ET-1-induced rise of BALF neutrophils (words) ([2]; listed as ETA-RA) | effect on the ET-1-induced rise of BALF neutrophils (words) ([2]; listed as HJP-272) | pIC50 [3] | ratio of IC50 for the endothelin B receptor to IC50 for the endothelin A receptor [4] | attachment of neutrophils to colonic submucosal venules [5]
CCc1cc2c(cc1Cn1c(C(=O)O)c(Cc3cccc(C(=O)O)c3)c(=O)c3cc(O)ccc31)OCO2 [HJP272, 3-(3-carboxybenzyl)-1-((6-ethylbenzo[d][1,3]dioxol-5-yl)methyl)-6-hydroxy-4-oxo-1,4-dihydroquinoline-2-carboxylic acid] | 30.0 | six out of eight | controlled preterm labor and delivery in our mouse model of infection-associated preterm labor very effectively; also recorded: significantly better control of premature delivery | significantly greater prevention of premature expulsion of pups | 15.0 ± 1.8 | None of the pups in the work presented here demonstrated such abnormalities | 206 to 208 | reversed | reversed this effect | reversed | 7.15 | 219.2 | –
COc1ccccc1Oc1c(NS(=O)(=O)c2ccc(C(C)(C)C)cc2)nc(-c2ncccn2)nc1OCCO [bosentan] | – | – | – | – | – | – | – | – | – | – | – | – | markedly reduced attachment
